{"source": "patent US8628788B2", "about": "“Formulations containing a non-oxidative biocide and a source of active halogen and use thereof in water treatment” (Bromine Compounds, Ltd., priority 2006, dated 2014)", "system": "Pseudomonas aeruginosa (ATCC 15442)", "experiment": "Simulated biofilm (bacteria entrapped in alginate gel beads)", "format": "cell-based", "settings": "2.5 ppm DBNPA, 30 minutes contact time", "source_text": "The biofilm simulation was created by entrapping bacteria in alginate gel beads."}
{"smiles": "N#CC(Br)(Br)C(N)=O", "note": "[DBNPA, 2,2-Dibromo-3-nitrilopropionamide]", "values": [{"measurement": "log reduction (as compared to control)", "result": 3, "unit": "log reduction"}]}
